This note sets out measurements from ChEMBL document CHEMBL1141242, “Estrogen receptor beta selective ligands: discovery and SAR of novel heterocyclic ligands” (Bioorg Med Chem Lett, 2005).

The target of assay [1] is T1, Estrogen receptor (Homo sapiens, UniProt P03372).
T1 sequence (P03372 whole entry): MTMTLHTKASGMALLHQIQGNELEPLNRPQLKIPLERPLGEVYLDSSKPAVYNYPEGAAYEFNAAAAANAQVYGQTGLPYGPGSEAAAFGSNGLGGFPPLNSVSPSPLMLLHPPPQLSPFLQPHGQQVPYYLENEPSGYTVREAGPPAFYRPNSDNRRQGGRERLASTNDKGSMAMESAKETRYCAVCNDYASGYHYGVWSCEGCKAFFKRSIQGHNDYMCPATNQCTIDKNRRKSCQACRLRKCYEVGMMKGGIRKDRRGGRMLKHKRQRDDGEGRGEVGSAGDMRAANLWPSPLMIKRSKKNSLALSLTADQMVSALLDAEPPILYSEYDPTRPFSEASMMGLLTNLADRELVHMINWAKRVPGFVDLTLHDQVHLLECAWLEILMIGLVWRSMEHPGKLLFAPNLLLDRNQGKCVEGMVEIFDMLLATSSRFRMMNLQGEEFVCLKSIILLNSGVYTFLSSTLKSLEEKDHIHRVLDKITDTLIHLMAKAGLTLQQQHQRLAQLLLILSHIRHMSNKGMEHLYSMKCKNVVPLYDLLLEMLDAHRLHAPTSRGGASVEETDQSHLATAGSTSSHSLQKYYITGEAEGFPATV
Description: Effect on ERalpha in MCF7 cell line transfected with ER responsive luciferase reporter

Assay [2] concerns the target Estrogen receptor beta (Rattus norvegicus, UniProt Q62986).
Description: Effect on ERbeta in rat ovary granulosa cell line transfected with ER responsive luciferase reporter
Assay [3] addresses T1, Estrogen receptor. Description: biochemical.
Assay [4] concerns the target Estrogen receptor beta (Homo sapiens, UniProt Q92731). Nature of the assay: biochemical.

Estrogen receptor beta (Rattus norvegicus, UniProt Q62986), sequence (Q62986 whole entry): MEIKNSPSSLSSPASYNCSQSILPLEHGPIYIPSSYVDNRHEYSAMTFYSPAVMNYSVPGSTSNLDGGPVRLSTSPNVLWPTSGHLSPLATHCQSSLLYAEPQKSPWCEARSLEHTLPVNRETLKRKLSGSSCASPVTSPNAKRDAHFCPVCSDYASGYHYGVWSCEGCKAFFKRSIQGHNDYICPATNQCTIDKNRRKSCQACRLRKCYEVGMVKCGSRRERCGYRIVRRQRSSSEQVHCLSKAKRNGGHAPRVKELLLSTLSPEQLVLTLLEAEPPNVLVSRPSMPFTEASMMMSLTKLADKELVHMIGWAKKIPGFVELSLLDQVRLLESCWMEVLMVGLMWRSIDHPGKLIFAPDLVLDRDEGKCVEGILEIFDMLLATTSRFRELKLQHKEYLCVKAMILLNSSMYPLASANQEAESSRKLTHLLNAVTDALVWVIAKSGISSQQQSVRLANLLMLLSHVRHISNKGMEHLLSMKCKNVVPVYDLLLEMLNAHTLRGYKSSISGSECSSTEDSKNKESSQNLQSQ
Estrogen receptor beta (Homo sapiens, UniProt Q92731), sequence (Q92731 whole entry): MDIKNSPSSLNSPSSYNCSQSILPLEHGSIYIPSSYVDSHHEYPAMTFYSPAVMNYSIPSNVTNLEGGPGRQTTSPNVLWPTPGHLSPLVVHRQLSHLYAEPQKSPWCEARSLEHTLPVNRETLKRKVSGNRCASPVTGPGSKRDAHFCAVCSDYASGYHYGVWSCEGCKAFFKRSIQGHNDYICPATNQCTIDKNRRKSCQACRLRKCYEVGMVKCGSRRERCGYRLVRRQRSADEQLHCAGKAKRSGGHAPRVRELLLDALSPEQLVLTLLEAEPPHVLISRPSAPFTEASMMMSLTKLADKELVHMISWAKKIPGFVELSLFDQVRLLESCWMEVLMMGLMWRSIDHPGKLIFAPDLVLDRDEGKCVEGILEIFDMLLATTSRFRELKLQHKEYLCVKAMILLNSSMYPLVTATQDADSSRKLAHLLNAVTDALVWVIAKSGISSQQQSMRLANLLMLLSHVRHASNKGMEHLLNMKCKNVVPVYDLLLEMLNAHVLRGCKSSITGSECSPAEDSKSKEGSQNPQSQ

With `Cn1cccc1-c1nc2ccccc2n1-c1ccc(O)cc1`, the concentration giving a half-maximal response (EC50) on Estrogen receptor [1] is above 1000 nM; at Estrogen receptor beta [2], 40.8 nM. Further, the figures for the IC50 at Estrogen receptor [3] and at Estrogen receptor beta [4] were 2940 nM and 28.1 nM, respectively.

With `Oc1ccc(-c2[nH]c3ccccc3c2-c2ccccc2)cc1`, the values for the half-maximal inhibitory concentration (IC50) at Estrogen receptor [3] and against Estrogen receptor beta [4] were 8310 nM and 355 nM, respectively.

On to `Oc1ccc(-c2noc(C(F)(F)F)c2-c2ccccc2)cc1`, for which the IC50 came out at 8.5 nM against Estrogen receptor [3] and 2.4 nM on Estrogen receptor beta [4].

Turning to `Oc1ccc(-c2[nH]c3ccccc3c2-c2ccc(O)cc2)cc1`, the half-inhibitory concentration (IC50) worked out at 94.8 nM on Estrogen receptor [3] and 11.9 nM against Estrogen receptor beta [4].

Take `Oc1ccc(-n2c(-c3ccccc3)nc3ccccc32)cc1`: the IC50 on Estrogen receptor [3] came to 1800 nM; against Estrogen receptor beta [4] it was 137 nM.

As to `c1ccc(-c2[nH]c3ccccc3c2-c2ccccc2)cc1`, the IC50 against Estrogen receptor [3] turned out to be 6950 nM; at Estrogen receptor beta [4] it was 171 nM.

Regarding `Oc1ccc(-c2[nH]c(C(F)(F)F)nc2-c2ccccc2)cc1`, the EC50 at Estrogen receptor [1] worked out at 243 nM; on Estrogen receptor beta [2] it was 6.7 nM. Besides, the values for the IC50 against Estrogen receptor [3] and against Estrogen receptor beta [4] were 403 nM and 15.1 nM, respectively.

As for `Oc1ccc(-n2c(-c3cccs3)nc3ccccc32)cc1`, the IC50 against Estrogen receptor [3] was above 6260 nM; at Estrogen receptor beta [4], 49.7 nM.

As to `Oc1ccc(-n2c(-c3ccccc3Cl)nc3ccccc32)cc1`, the IC50 at Estrogen receptor [3] is 1730 nM; against Estrogen receptor beta [4] it was 149 nM.

On to `Oc1ccc(-c2c(-c3ccccc3)[nH]c3ccccc23)cc1`, for which the figures for the 50% effective concentration (EC50) on Estrogen receptor [1] and on Estrogen receptor beta [2] were 38.5 nM and 1.09 nM, respectively. Further, the IC50 is 24 nM at Estrogen receptor [3] and 1.12 nM against Estrogen receptor beta [4].

As for `Cc1nocc1-c1nc2ccccc2n1-c1ccc(O)cc1`, the IC50 against Estrogen receptor [3] was 1160 nM; at Estrogen receptor beta [4] it was 14.3 nM.
